Peptide text beside a SMILES is read from it.

Consider 4 compounds from article PMC4014704, “β-Boomerang Antimicrobial and Antiendotoxic Peptides: Lipidation and Disulfide Bond Effects on Activity and Structure” (Pharmaceuticals, 2014).

For this data set the following is noted: buffers. From the text:
In addition, incorporation of disulfide bridges in AMPs may stabilize conformations and enhance cationicity and hydrophobicity required for enhanced activity. […] Residue Ile10 was chosen for Cys replacement since this residue is located at the exposed face of the β-strand of the YI12WF structure (Figure 1).
The solution conformations of YI13C, C4YI13C peptides were examined in free solution using two-dimensional ^1H-^1H NOESY and TOCSY experiments.

In the case of `CCCC(=O)N[C@@H](Cc1ccc(O)cc1)C(=O)N[C@H](C(=O)N[C@@H](CC(C)C)C(=O)N[C@@H](Cc1c[nH]c2ccccc12)C(=O)N[C@@H](CCCCN)C(=O)N[C@@H](CCCNC(=N)N)C(=O)N[C@@H](CCCCN)C(=O)N[C@@H](CCCNC(=N)N)C(=O)N[C@@H](Cc1ccccc1)C(=O)N[C@@H](CSSC[C@H](NC(=O)[C@H](Cc1ccccc1)NC(=O)[C@H](CCCNC(=N)N)NC(=O)[C@H](CCCCN)NC(=O)[C@H](CCCNC(=N)N)NC(=O)[C@H](CCCCN)NC(=O)[C@H](Cc1c[nH]c2ccccc12)NC(=O)[C@H](CC(C)C)NC(=O)[C@@H](NC(=O)[C@H](Cc1ccc(O)cc1)NC(=O)CCC)C(C)C)C(=O)N[C@@H](Cc1ccccc1)C(=O)N[C@H](C(N)=O)[C@@H](C)CC)C(=O)N[C@@H](Cc1ccccc1)C(=O)N[C@H](C(N)=O)[C@@H](C)CC)C(C)C` [C4YI12WFC] (HELM PEPTIDE1{[CCCC(=O)[*:2]].Y.V.L.W.K.R.K.R.F.C.F.I.[am]}|PEPTIDE2{[CCCC(=O)[*:2]].Y.V.L.W.K.R.K.R.F.C.F.I.[am]}$PEPTIDE1,PEPTIDE2,11:R3-11:R3$$$V2.0), the “Solubility in buffers (in words)” value is given as “remained insoluble in buffers”.

Turning to `CCCC(=O)N[C@@H](Cc1ccc(O)cc1)C(=O)N[C@H](C(=O)N[C@@H](CC(C)C)C(=O)N[C@@H](Cc1c[nH]c2ccccc12)C(=O)N[C@@H](CCCCN)C(=O)N[C@@H](CCCNC(=N)N)C(=O)N[C@@H](CCCCN)C(=O)N[C@@H](CCCNC(=N)N)C(=O)N[C@@H](Cc1ccccc1)C(=O)N[C@H](C(=O)N[C@@H](Cc1ccccc1)C(=O)N[C@H](C(N)=O)[C@@H](C)CC)[C@@H](C)CC)C(C)C` [C4YI12WF] (HELM PEPTIDE1{[CCCC(=O)[*:2]].Y.V.L.W.K.R.K.R.F.I.F.I.[am]}$$$$V2.0), the “Solubility in buffers (in words)” value is on record as “remained insoluble in buffers”.

`CCCCCCCC(=O)N[C@@H](Cc1ccc(O)cc1)C(=O)N[C@H](C(=O)N[C@@H](CC(C)C)C(=O)N[C@@H](Cc1c[nH]c2ccccc12)C(=O)N[C@@H](CCCCN)C(=O)N[C@@H](CCCNC(=N)N)C(=O)N[C@@H](CCCCN)C(=O)N[C@@H](CCCNC(=N)N)C(=O)N[C@@H](Cc1ccccc1)C(=O)N[C@@H](CSSC[C@H](NC(=O)[C@H](Cc1ccccc1)NC(=O)[C@H](CCCNC(=N)N)NC(=O)[C@H](CCCCN)NC(=O)[C@H](CCCNC(=N)N)NC(=O)[C@H](CCCCN)NC(=O)[C@H](Cc1c[nH]c2ccccc12)NC(=O)[C@H](CC(C)C)NC(=O)[C@@H](NC(=O)[C@H](Cc1ccc(O)cc1)NC(=O)CCCCCCC)C(C)C)C(=O)N[C@@H](Cc1ccccc1)C(=O)N[C@H](C(N)=O)[C@@H](C)CC)C(=O)N[C@@H](Cc1ccccc1)C(=O)N[C@H](C(N)=O)[C@@H](C)CC)C(C)C` [C8YI12WFC] (HELM PEPTIDE1{[CCCCCCCC(=O)[*:2]].Y.V.L.W.K.R.K.R.F.C.F.I.[am]}|PEPTIDE2{[CCCCCCCC(=O)[*:2]].Y.V.L.W.K.R.K.R.F.C.F.I.[am]}$PEPTIDE1,PEPTIDE2,11:R3-11:R3$$$V2.0): the “Solubility in buffers (in words)” value is “remained insoluble in buffers”.

With `CCCCCCCC(=O)N[C@@H](Cc1ccc(O)cc1)C(=O)N[C@H](C(=O)N[C@@H](CC(C)C)C(=O)N[C@@H](Cc1c[nH]c2ccccc12)C(=O)N[C@@H](CCCCN)C(=O)N[C@@H](CCCNC(=N)N)C(=O)N[C@@H](CCCCN)C(=O)N[C@@H](CCCNC(=N)N)C(=O)N[C@@H](Cc1ccccc1)C(=O)N[C@H](C(=O)N[C@@H](Cc1ccccc1)C(=O)N[C@H](C(N)=O)[C@@H](C)CC)[C@@H](C)CC)C(C)C` [C8YI12WF] (HELM PEPTIDE1{[CCCCCCCC(=O)[*:2]].Y.V.L.W.K.R.K.R.F.I.F.I.[am]}$$$$V2.0), the “Solubility in buffers (in words)” value was “remained insoluble in buffers”.
